# In patent publication US20090092975A1, “SELECTABLE MARKER” (Mologic Ltd, priority 2005, published 2009):
# System: Saccharomyces cerevisiae strain 62 expressing PAD1
# Assay type: cell-based
# Settings: predicted decarboxylation product in headspace; weak acid 0.5 mM, YEPD pH 4, 10 h at 28° C.; 0 = no decarboxylation
# Experimental: S. cerevisiae strain 62 (which expresses the PAD1 gene) was cultured for 48 hr in YEPD pH 4, Yeast extract 10 g, Peptone 20 g, Glucose 20 g, at 28° C. in a shake flask, 120 rpm. The stationary-phase cells were inoculated into capped 28 ml McCartney bottles containing 10 mls YEPD pH 4, at 1 million cells per ml. Each bottle also contained one of 70 substrate weak acids at 0.5 mM. Tubes were then shaken for 10 h at 28° C.
# 1 ml samples of the headspace were passed into stainless-steel thermal desorption tubes, followed by a 10 ml air flush. (Desorption tubes—89 mm×5 mm ID, packed with 200 mg Tenax TA 60-80 mesh, Phase Separations, UK).
# Thermal desorption tubes were placed in a Perkin Elmer ATD400 thermal desorption system, and the volatiles transferred to the Gas Chromatograph in a 2 stage process. Primary desorption was 250° C. for 10 min with a helium flow of […]. Using a split ratio of 1:1, volatiles were retained on a cold trap (25 mg Tenax TA) held at −30° C. Secondary desorption was carried out by rapidly heating and holding the cold trap at 250° C. for 2 min, with a helium flow of 20 ml/min and split ratio of 19:1. A DB624 column {30 m×0.32 mm, 1.8 microns film thickness} installed in a Carbo Erba GC800 was used to achieve separation and introduction of the volatile to the mass spectrometer. The column temperature was held at 40° C. for 2 min then increased at 5° C./min to 250° C. The column outlet was coupled via a heated transfer line at 250° C. into the ion source of the mass spectrometer operated at 70 eV in electron ionization (EI) mode. The source temperature was at 200° C. and the detector photomultiplier at 500V. Full scan MS data acquisition was carried out from m/z 30 to 300, with 0.6 sec scan and 0.05 sec inter scan delay.
# The results are shown in Table 3, in each case the “predicted product” being the product which would be produced if decarboxylation of the weak acid were to take place.
row,SMILES,GCMS Peak area
1,O=C(O)C=Cc1ccccc1 [Cinnamic acid],17538
2,O=C(O)/C=C/c1c[nH]cn1 [Urocanic acid],0
3,O=C(O)C=Cc1cccc(Br)c1 [3-Bromo-cinnamic acid],248
4,O=CC=Cc1ccccc1 [Cinnamaldehyde],0
5,Cc1cccc(C=CC(=O)O)c1 [3-Methyl-cinnamic acid],8195
6,"O=C(O)C=Cc1ccc(F)cc1F [2,4-Difluoro-cinnamic acid]",35698
7,O=C(O)C=Cc1cccc(C(F)(F)F)c1 [3-Trifluoromethyl-cinnamic acid],946
8,"O=C(O)C=Cc1ccc(F)c(F)c1F [2,3,4-Trifluoro-cinnamic acid]",0
9,COc1ccc(C=CC(=O)O)cc1 [4-Methoxy-cinnamic acid],1899
10,CCOc1ccccc1C=CC(=O)O [2-Ethoxycinnamic acid],193
11,O=C(O)C=Cc1ccccc1F [2-Fluoro-cinnamic acid],3760
12,O=C(O)C#Cc1ccccc1 [Phenyl-propiolic acid],0
13,O=C(O)C=Cc1ccc(Br)cc1 [4-Bromo-cinnamic acid],1038
14,O=C(O)C=Cc1ccccc1C(=O)O [2-Carboxy-cinnamic acid],0
15,O=C(O)C=Cc1ccc([N+](=O)[O-])cc1 [4-Nitro-cinnamic acid],0
16,O=C(O)C=Cc1cccc(F)c1 [3-Fluoro-cinnamic acid],14027
17,O=C(O)C=Cc1ccc(Cl)cc1 [4-Choro-cinnamic acid],12391
18,"COc1ccc(C=CC(=O)O)c(OC)c1OC [2,3,4-Trimethoxy-cinnamic acid]",0
19,O=C(O)C=Cc1ccccc1[N+](=O)[O-] [2-Nitro-cinnamic acid],0
20,OCC=Cc1ccccc1 [Cinnamyl alcohol],0

row,SMILES,GCMS Peak area
1,Cc1ccccc1C=CC(=O)O [2-Methyl-cinnamic acid],18046
2,O=C(O)C=Cc1cccc([N+](=O)[O-])c1 [3-Nitro-cinnamic acid],0
3,O=C(O)C=Cc1ccc(C=CC(=O)O)cc1 [3-[4-(2-Carboxy-vinyl)-phenyl]-acrylic acid],0
4,CCCCCC(=O)O [Hexanoic acid],0
5,CN(C)c1ccc(C=CC(=O)O)cc1 [4-Dimethylamino-cinnamic acid],0
6,O=C(O)C=Cc1ccc(C(F)(F)F)cc1 [4-Trifluoromethyl-cinnamic acid],1600
7,COc1cccc(C=CC(=O)O)c1 [3-Methoxy-cinnamic acid],178
8,O=C(O)C=Cc1ccccc1Cl [2-Chloro-cinnamic acid],4911
9,O=Cc1ccc(C=CC(=O)O)cc1 [4-Formyl-cinnamic acid],0
10,COc1ccccc1C=CC(=O)O [2-Methoxy-cinnamic acid],128
11,O=C(O)C(=Cc1ccccc1)c1ccccc1 [alpha-phenyl-cinnamic acid],0
12,O=C(O)C=Cc1ccco1 [Furylacrylic acid],15611
13,O=C(O)c1ccccc1 [Benzoic acid],0
14,CCCCC(=O)O [Valeric acid],0
15,CCOc1ccc(C=CC(=O)O)cc1 [4-Ethoxycinnamic acid],227
16,"COc1ccc(C=CC(=O)O)c(OC)c1 [2,4-Dimethoxy-cinnamic acid]",30
17,O=C(O)/C=C/c1ccc(O)cc1 [Coumaric acid],0
18,"O=C(O)/C=C/c1ccc(Cl)cc1Cl [trans-2,4-Dichloro-cinnamic acid]",4428
19,O=C(O)C=Cc1c[nH]c2ccccc12 [Indole-acrylic acid],0

# System: not given
# Settings: Table 1, monocarboxylic weak acids; cited from earlier work
row,SMILES,Pka
1,CC(C)=CCC[C@@H](C)CC(=O)O [(R)(+)Citronellic acid],4.752
2,CCC(C)CC(=O)O (centres unmarked) [3-Methylvaleric acid],4.7868
3,CCCC=CCC(=O)O [3-Heptenoic acid],4.7696
4,CC1CC1C(=O)O (centres unmarked) [2-Methyl-cyclopropane carboxylic acid],4.8
5,CCCCCCC=CCC(=O)O [3-Decenoic acid],4.728
6,CCCCC=CCC(=O)O [3-Octenoic acid],4.7926
7,CCC(CC)C(=O)O [2-Ethylbutyric acid],4.71
8,CC1(C(=O)O)CC1 [1-Methyl-cyclopropane carboxylic acid],5.1
9,C=CCC(=O)O [Vinylacetic acid],4.51
10,C/C=C/CC(=O)O [trans-3-Pentenoic acid],4.36
11,C#CCCCCC(=O)O [6-Heptynoic acid],4.71
12,O=C(O)C1CC=CCC1 (centres unmarked) [3-Cyclohexene-1-carboxylic acid],4.593
13,COc1cc(C(=O)O)ccc1O [Vanillic acid],4.51
14,O=C(O)CCCl [3-Chloropropionic acid],3.8924
15,O=C(O)CCCC1CCCCC1 [Cyclohexanebutyric acid],4.9061
16,CC(C(=O)O)c1ccccc1 (centres unmarked) [2-Phenylpropionic acid],4.0606
17,C/C=C(\C)C(=O)O [Tiglic acid],4.4564
18,Cc1ccccc1C(=O)O [o-Toluic acid],3.98
19,O=C(O)/C=C\Cl [cis-3-Chloroacrylic acid],3.2506

row,SMILES,Pka
1,O=C(O)CC1CC1 [Cyclopropylacetic acid],4.8873
2,O=C(O)c1ccccc1Cl [2-Chlorobenzoic acid],2.89
3,CC(Cl)C(=O)O (centres unmarked) [2-Chloropropionic acid],2.897
4,O=C(O)C1=CCCC1 [1-Cyclopentene-1-carboxylic acid],3.7528
5,O=C(O)CCCc1ccccc1 [4-Phenylbutyric acid],4.76
6,O=C(O)c1cccc(Cl)c1 [3-Chlorobenzoic acid],3.81
7,CC(C)c1ccc(C(=O)O)cc1 [Cumic acid],4.35
8,C#CC(=O)O [Propiolic acid],2.39
9,O=C(O)CC1CCCC1 [Cyclopentylacetic acid],4.76
10,"O=C(O)C1(C(=O)O)CC1 [1,1-Cyclopropanedicarboxylic acid]",3.114
11,CC(C)CCC(=O)O [4-Methylvaleric acid],4.8689
12,O=C(O)C1=CCCCC1 [1-Cyclohexene-1-carboxylic acid],3.7528
13,O=C(O)c1cccc([N+](=O)[O-])c1 [3-Nitrobenzoic acid],3.46
14,O=C(O)C1CCCC1 [Cyclopentanecarboxylic acid],4.8
15,C=C(Cl)C(=O)O [2-Chloroacrylic acid],2.6975
16,C=CCCCCC(=O)O [6-Heptenoic acid],4.81
17,CCCC(C)C(=O)O (centres unmarked) [2-Methylvaleric acid],4.79
18,COc1cccc(C(=O)O)c1 [m-Anisic acid],4.09
19,O=C(O)CC1C=CCC1 (centres unmarked) [2-Cyclopentene-1-acetic acid],4.61

row,SMILES,Pka
1,O=C(O)CC1CCCCCC1 [Cycloheptylacetic acid],4.822
2,C=CCCC(=O)O [4-Pentenoic acid],4.6364
3,C=C(C)C(=O)O [Methacrylic acid],4.61
4,"CC(C)(C)CC(=O)O [3,3-Dimethylbutyric acid]",4.961
5,O=C(O)CC1CCCCC1 [Cyclohexylacetic acid],4.8806
6,"CCC(C)(C)C(=O)O [2,2-Dimethylbutyric acid]",5.03
7,O=C(O)COc1ccccc1 [Phenoxyacetic acid],3.17
8,O=C(O)/C=C/Cl [trans-3-Chloroacrylic acid],3.2506
9,CC#CC(=O)O [2-Butynoic acid],2.6546
10,O=C(O)Cc1ccccc1 [Phenylacetic acid],4.31
11,O=C(O)C1CCCCCC1 [Cycloheptanecarboxylic acid],4.9518
12,C#CCCC(=O)O [4-Pentynoic acid],4.1342
13,O=C(O)CCC1CCCC1 [3-Cyclopentylpropionic acid],4.81
14,O=C(O)c1ccco1 [2-Furoic acid],3.13
15,CCc1ccc(C(=O)O)cc1 [4-Ethylbenzoic acid],4.35
16,O=C(O)c1ccccc1[N+](=O)[O-] [2-Nitrobenzoic acid],2.47
17,O=C(O)c1ccsc1 [Thiophene-3-carboxylic acid],4.08
18,CCCCCCCCCCC(=O)O [Undecanoic acid],5.03
